Data from patent US4463173A, “Cephalosporin derivatives” (ICI Pharma, priority 1979, dated 1984).
Values after ≈ are worked out from the molar mass of the structure shown.

Tests used:
Staph. aureus = test: MIC by agar-dilution technique, Staph. aureus A6; type: cell-based; details: Staphylococcus aureus, No. Code A6, inoculum ~10^5 CFU
Text: (§1) As noted above the cephalosporin derivatives of the invention have antibacterial properties. Thus they are useful antibacterial agents, many of them having a broad spectrum of activity in vitro, against standard laboratory microorganisms, both Gram-negative and Gram-positive, which are used to screen for activity against pathogenic bacteria. The antibacterial spectrum and potency of a particular compound may be determined in a standard test system. […] The antibacterial activity is described in terms of the minimum inhibitory concentration (MIC) determined by agar-dilution technique with an inoculum size of ~10^5 CFU.

Serratia marescens = test: MIC by agar-dilution technique, Serratia marescens A16; type: cell-based; details: No. Code A16, inoculum ~10^5 CFU
Text: as §1

K. aerogenes = test: MIC by agar-dilution technique, K. aerogenes A10; type: cell-based; details: Klebsiella aerogenes, No. Code A10, inoculum ~10^5 CFU
Text: as §1

Strep. pyogenes = test: MIC by agar-dilution technique, Strep. pyogenes A1; type: cell-based; details: Streptococcus pyogenes, No. Code A1, inoculum ~10^5 CFU
Text: as §1

Ps. aeruginosa = test: MIC by agar-dilution technique, Ps. aeruginosa A21; type: cell-based; details: Pseudomonas aeruginosa, No. Code A21, inoculum ~10^5 CFU
Text: as §1

E. coli = test: MIC by agar-dilution technique, E. coli A8; type: cell-based; details: Escherichia coli, No. Code A8, inoculum ~10^5 CFU
Text: as §1

Ent. cloacae = test: MIC by agar-dilution technique, Ent. cloacae A13; type: cell-based; details: Enterobacter cloacae, No. Code A13, inoculum ~10^5 CFU
Text: as §1

Proteus mirabilis = test: MIC by agar-dilution technique, Proteus mirabilis A18; type: cell-based; details: No. Code A18, inoculum ~10^5 CFU
Text: as §1

bacterial infection = test: mouse protection test (PD50); type: in vivo; details: subcutaneous
[1] = overt toxic symptoms or side effects in mice; type: in vivo; details: single dose of 2 g./kg.
Method: Similarly the compound 7-(imidazol-2-yl)amino-3-(2-methyl-1,3,4-thiadiazol-5-yl)thiomethylceph-3- em-4-carboxylic acid was administered both orally and subcutaneously to mice at a single dose of 2 g./kg.

| Structure (SMILES) | MIC (Staph. aureus) [µg/mL] | MIC (Serratia marescens) [µg/mL] | MIC (K. aerogenes) [µg/mL] | MIC (Strep. pyogenes) [µg/mL] | MIC (Ps. aeruginosa) [µg/mL] | MIC (E. coli) [µg/mL] | MIC (Ent. cloacae) [µg/mL] | MIC (Proteus mirabilis) [µg/mL] | dose relative to minimum effective dose which protected 50% of the mice against bacterial infection (PD50) (bacterial infection; dose 100 mg./kg.) | other results |
| --- | --- | --- | --- | --- | --- | --- | --- | --- | --- | --- |
| CC(=O)OCC1=C(C(=O)O)N2C(=O)[C@@H](Nc3nc4ccccc4[nH]3)[C@H]2SC1 | 2 (≈ 5.15 µM) | 64 (≈ 165 µM) | 4 (≈ 10.3 µM) | 2 (≈ 5.15 µM) | > 64 | 2 (≈ 5.15 µM) | > 64 | 4 (≈ 10.3 µM) |  |  |
| CC1=C(C(=O)O)N2C(=O)[C@@H](NC3=NCCN3)[C@H]2SC1 | > 256 | 32 (≈ 113 µM) | 8 (≈ 28.3 µM) | 256 (≈ 907 µM) | > 256 | 8 (≈ 28.3 µM) | 8 (≈ 28.3 µM) | 256 (≈ 907 µM) |  |  |
| CC(=O)OCC1=C(C(=O)O)N2C(=O)[C@@H](Nc3nc4c(O)cccc4[nH]3)[C@H]2SC1 [3-acetoxymethyl-7-(4-hydroxybenzimidazol-2-yl)aminoceph-3-em-4-carboxylic acid] |  |  |  |  |  |  |  |  |  | dose relative to minimum effective dose which protected 50% of the mice against bacterial infection (PD50) (bacterial infection; dose 200 mg./kg.): at least ten times |
| CC(=O)OCC1=C(C(=O)O)N2C(=O)[C@@H](Nc3nc(-c4ccc(N(C)C)cc4)c[nH]3)[C@H]2SC1 [3-acetoxymethyl-7-[4-(4-dimethylamino)phenylimidazol-2-yl]aminoceph-3-em-4-carboxylic acid] |  |  |  |  |  |  |  |  | at least ten times |  |
| CC(=O)OCC1=C(C(=O)O)N2C(=O)[C@@H](Nc3ncc[nH]3)[C@H]2SC1 [3-acetoxymethyl-7-imidazol-2-yl)aminoceph-3-em-4-carboxylic acid] |  |  |  |  |  |  |  |  | at least ten times |  |
| Cn1nnnc1SCC1=C(C(=O)O)N2C(=O)[C@@H](Nc3ncc[nH]3)[C@H]2SC1 [7-(imidazol-2-yl)amino-3-(1H-1-methyltetrazol-5-yl)thiomethylceph-3-em-4-carboxylic acid] |  |  |  |  |  |  |  |  | at least ten times |  |
| Cc1nnc(SCC2=C(C(=O)O)N3C(=O)[C@@H](Nc4ncc[nH]4)[C@H]3SC2)s1 [7-(imidazol-2-yl)amino-3-(2-methyl-1,3,4-thiadiazol-5-yl)thiomethylceph-3-em-4-carboxylic acid] |  |  |  |  |  |  |  |  |  | overt toxic symptoms or side effects ([1]; oral): no overt toxic symptoms or side effects were noted; overt toxic symptoms or side effects ([1]; subcutaneous): no overt toxic symptoms or side effects were noted |
| CC(=O)OCC1=C(C(=O)O)N2C(=O)[C@@H](Nc3ncc[nH]3)[C@H]2SC1 [drawing 38] | 32 (≈ 94.6 µM) | 1 (≈ 2.96 µM) | 0.5 (≈ 1.48 µM) | 16 (≈ 47.3 µM) | > 256 | 0.12 (≈ 0.355 µM) | 4 (≈ 11.8 µM) | 32 (≈ 94.6 µM) |  |  |
